Results on 29 compounds are retold here after US9062061B2, “Compound having PARP inhibitory activity” (SANTEN PHARMACEUTICAL CO., LTD., priority 2011, dated 2015).

One may read the inhibition as the share of the control response that was lost under treatment.

The structures appear in SMILES notation.

The assay deals with T1, human recombinant PARP1 (Homo sapiens, UniProt P09874).
T1 construct: purchased Trevigen 4677-096-K
As to the kind of experiment: PARP inhibitory activity measurement test (Universal Colorimetric PARP Assay kit, Trevigen). Type of assay: biochemical. As to conditions: compound concentration: 10 μM, read-out: PARP1 inhibition rate (%). The procedure: For evaluating PARP inhibitory activity of the present compound, inhibitory activity of each test compound against human recombinant PARP 1 was measured using Universal Colorimetric PARP Assay kit with Histone-Coated Strip Wells (Cat No.: 4677-096-K) available from Trevigen. The test was conducted according to the procedure in the instruction attached to this kit. The concrete operation will be described below.
After dissolving the test compound in dimethyl sulfoxide, the solution was diluted with a PARP buffer attached to the kit to prepare a 50 μM test compound solution.
In each well of a histone-coated 96-well plate, 10 μL of the test compound solution (50 μM), 15 μL of human recombinant PARP1 (33.3 Unit/mL) and 25 μL of PARP cocktail (containing activated DNA and biotinated NAD) were added, and incubated at room temperature for 1 hour (final reaction amount: 50 μL). Each well was washed twice with 200 μL of 0.1% Triton-X-containing Dulbecco's phosphate buffer, and further washed twice with 200 μL of Dulbecco's phosphate buffer, and then 50 μL of Strep-HRP was added, followed by incubation at room temperature for 1 hour. Each well was washed twice with 200 μL of 0.1% Triton-X-containing Dulbecco's phosphate buffer, and further washed twice with 200 μL of Dulbecco's phosphate buffer, and then 50 μL of TACS-Sapphire coloriometric substrate was added, followed by incubation at room temperature for 15 minutes. After stopping the reaction by adding 50 μL of 0.2 M HCl, absorbance at 450 nm (Abs 450) was measured by a microplate reader. The number of examples in each group was 1 to 2.
Using a well into which dimethyl sulfoxide and a PARP buffer were added in place of the test compound solution and human recombinant PARP1, the above operation was conducted as a negative control.
Using a well into which a PARP buffer containing dimethyl sulfoxide was added in place of the test compound solution, the above operation was conducted as a positive control.
PARP1 inhibition rate (%) was calculated according to the following Formula 1. PARP1 inhibition rate(%)=(AbsB−AbsX)/(AbsB−AbsA)×100 [Formula 1]
AbsA: absorbance of negative control (Abs 450)
AbsB: absorbance of positive control (Abs 450)
AbsX: absorbance of test compound-treated group (Abs 450)

T1 sequence (P09874 whole entry): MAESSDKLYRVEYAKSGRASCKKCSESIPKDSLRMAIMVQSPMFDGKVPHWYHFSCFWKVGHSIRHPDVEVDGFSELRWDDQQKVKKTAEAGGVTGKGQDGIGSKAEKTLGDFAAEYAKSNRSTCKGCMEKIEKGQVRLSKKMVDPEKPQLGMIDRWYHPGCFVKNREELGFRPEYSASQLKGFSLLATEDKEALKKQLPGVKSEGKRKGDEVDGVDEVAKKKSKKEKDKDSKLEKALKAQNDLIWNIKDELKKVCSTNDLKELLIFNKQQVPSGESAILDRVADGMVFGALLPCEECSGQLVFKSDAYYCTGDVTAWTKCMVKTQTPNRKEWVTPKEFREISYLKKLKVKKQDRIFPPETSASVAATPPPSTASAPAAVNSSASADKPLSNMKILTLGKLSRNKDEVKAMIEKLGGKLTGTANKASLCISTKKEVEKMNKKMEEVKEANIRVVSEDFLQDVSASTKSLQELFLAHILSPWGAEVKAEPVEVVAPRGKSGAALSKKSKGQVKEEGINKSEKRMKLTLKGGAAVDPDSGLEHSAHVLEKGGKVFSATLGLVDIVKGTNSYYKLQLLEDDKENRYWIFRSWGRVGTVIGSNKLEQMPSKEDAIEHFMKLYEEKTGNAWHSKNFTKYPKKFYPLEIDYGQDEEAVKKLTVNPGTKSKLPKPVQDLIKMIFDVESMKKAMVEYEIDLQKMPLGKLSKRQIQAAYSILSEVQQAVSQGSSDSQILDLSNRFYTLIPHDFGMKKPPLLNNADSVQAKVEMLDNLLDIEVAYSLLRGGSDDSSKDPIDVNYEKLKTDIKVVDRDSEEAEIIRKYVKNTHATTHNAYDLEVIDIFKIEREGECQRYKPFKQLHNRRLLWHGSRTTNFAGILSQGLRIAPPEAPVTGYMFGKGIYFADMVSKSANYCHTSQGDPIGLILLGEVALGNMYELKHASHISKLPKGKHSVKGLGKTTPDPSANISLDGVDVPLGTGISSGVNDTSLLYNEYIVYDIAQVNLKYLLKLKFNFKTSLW

For `O=C(c1cc2[nH]c(=O)c3ccccc3n2c1)N1CCN(c2ccc(F)cc2)CC1` [Compound 1-1, 2-[4-(4-Fluorophenyl)piperazine-1-carbonyl]pyrrolo[1,2-a]quinazolin-5(4H)-one], the inhibition at 10 µM amounted to 90%.

As for `O=C(c1cc2[nH]c(=O)c3ccccc3n2c1)N1CCN(Cc2ccc(Cl)cc2)CC1` [Compound 1-2, 2-[4-(4-Chlorobenzyl)piperazine-1-carbonyl]pyrrolo[1,2-a]quinazolin-5(4H)-one], the inhibition at 10 µM was 55%.

As to `O=C(c1cc2[nH]c(=O)c3ccccc3n2c1)N1CCN(c2nccs2)CC1` [Compound 1-3, 2-[4-(Thiazol-2-yl)piperazine-1-carbonyl]pyrrolo[1,2-a]quinazolin-5(4H)-one], the inhibition at 10 µM worked out at 100%.

Turning to `O=C(c1cc2[nH]c(=O)c3ccccc3n2c1)N1CCN(c2ccccc2)CC1` [Compound 1-4, 2-(4-Phenylpiperazine-1-carbonyl)pyrrolo[1,2-a]quinazolin-5(4H)-one], the inhibition at 10 µM was found to be 99%.

In the case of `O=C(c1cc2[nH]c(=O)c3ccccc3n2c1)N1CCC(c2ccccc2)CC1` [Compound 1-5, 2-(4-Phenylpiperidine-1-carbonyl)pyrrolo[1,2-a]quinazolin-5(4H)-one], the inhibition at 10 µM worked out at 71%.

In the case of `O=C(c1cc2[nH]c(=O)c3ccccc3n2c1)N1CC=C(c2ccccc2)CC1` [Compound 1-6, 2-(4-Phenyl-1,2,3,6-tetrahydropyridine-1-carbonyl)pyrrolo[1,2-a]quinazolin-5(4H)-one], the inhibition at 10 µM is 23%.

For the compound `O=C(c1cc2[nH]c(=O)c3ccccc3n2c1)N1CC=C(c2ccc(Cl)cc2)CC1` [Compound 1-7, 2-[4-(4-Chlorophenyl)-1,2,3,6-tetrahydropyridine-1-carbonyl]pyrrolo[1,2-a]quinazolin-5(4H)-one], the inhibition at 10 µM worked out at 44%.

Turning to `O=C(c1cc2[nH]c(=O)c3ccccc3n2c1)N1CC=C(c2ccc(F)cc2)CC1` [Compound 1-8, 2-[4-(4-Fluorophenyl)-1,2,3,6-tetrahydropyridine-1-carbonyl]pyrrolo[1,2-a]quinazolin-5(4H)-one], the inhibition at 10 µM came to 51%.

In the case of `CN1CCN(C(=O)c2cc3[nH]c(=O)c4ccccc4n3c2)CC1` [Compound 1-10, 2-(4-Methylpiperazine-1-carbonyl)pyrrolo[1,2-a]quinazolin-5(4H)-one], the inhibition at 10 µM was determined as 68%.

As to `O=C(c1cc2[nH]c(=O)c3ccccc3n2c1)N1CCN(Cc2ccccc2)CC1` [Compound 1-11, 2-(4-Benzylpiperazine-1-carbonyl)pyrrolo[1,2-a]quinazolin-5(4H)-one], the inhibition at 10 µM amounted to 86%.

For the compound `O=C(c1cc2[nH]c(=O)c3ccccc3n2c1)N1CCN(c2ccc(Cl)cc2)CC1` [Compound 1-12, 2-[4-(4-Chlorophenyl)piperazine-1-carbonyl]pyrrolo[1,2-a]quinazolin-5(4H)-one], the inhibition at 10 µM amounted to 64%.

On to `O=C(c1cc2[nH]c(=O)c3ccccc3n2c1)N1CCN(Cc2ccc(F)cc2)CC1` [Compound 1-13, 2-[4-(4-Fluorobenzyl)piperazine-1-carbonyl]pyrrolo[1,2-a]quinazolin-5(4H)-one], for which the inhibition at 10 µM stood at 67%.

On to `O=C(c1cc2[nH]c(=O)c3ccccc3n2c1)N1CCC(c2ccc(F)cc2)CC1` [Compound 1-14, 2-[4-(4-Fluorophenyl)piperidine-1-carbonyl]pyrrolo[1,2-a]quinazolin-5(4H)-one], for which the inhibition at 10 µM was 44%.

Turning to `O=C(c1cc2[nH]c(=O)c3ccccc3n2c1)N1CCN(c2cccc(F)c2)CC1` [Compound 1-15, 2-[4-(3-Fluorophenyl)piperazine-1-carbonyl]pyrrolo[1,2-a]quinazolin-5(4H)-one], the inhibition at 10 µM was determined as 74%.

As to `O=C(c1cc2[nH]c(=O)c3ccccc3n2c1)N1CCc2ccccc2C1` [Compound 1-21, 2-(3,4-Dihydroisoquinoline-2(1H)-carbonyl)pyrrolo[1,2-a]quinazolin-5(4H)-one], the inhibition at 10 µM turned out to be 84%.

Regarding `CC(C)(C)OC(=O)N1CCCN(C(=O)c2cc3[nH]c(=O)c4ccccc4n3c2)CC1` [Compound 1-47, 2-[4-(tert-Butoxycarbonyl)homopiperazine-1-carbonyl]pyrrolo[1,2-a]quinazolin-5(4H)-one], the inhibition at 10 µM came to 93%.

With `O=C(Nc1ccccc1)c1cc2[nH]c(=O)c3ccccc3n2c1` [Compound 1-49, 2-(Phenylaminocarbonyl)pyrrolo[1,2-a]quinazolin-5(4H)-one], the inhibition at 10 µM was 36%.

`CN1CCCN(C(=O)c2cc3[nH]c(=O)c4ccccc4n3c2)CC1` [Compound 1-50, 2-(4-Methylhomopiperazine-1-carbonyl)pyrrolo[1,2-a]quinazolin-5(4H)-one]: the inhibition at 10 µM worked out at 92%.

With `CN(C)CCNC(=O)c1cc2[nH]c(=O)c3ccccc3n2c1` [Compound 1-51, 2-[(2-Dimethylaminoethyl)aminocarbonyl]pyrrolo[1,2-a]quinazolin-5(4H)-one], the inhibition at 10 µM came out at 92%.

Consider `O=C(NCc1ccncc1)c1cc2[nH]c(=O)c3ccccc3n2c1` [Compound 1-52, 2-[(Pyridin-4-ylmethyl)aminocarbonyl]pyrrolo[1,2-a]quinazolin-5(4H)-one], for which the inhibition at 10 µM came to 94%.

`O=C(NCCN1CCOCC1)c1cc2[nH]c(=O)c3ccccc3n2c1` [Compound 1-53, 2-[2-(Morpholin-4-ylethyl)aminocarbonyl]pyrrolo[1,2-a]quinazolin-5(4H)-one]: the inhibition at 10 µM came out at 96%.

Turning to `O=C(NCc1ccccc1)c1cc2[nH]c(=O)c3ccccc3n2c1` [Compound 1-54, 2-(Benzylaminocarbonyl)pyrrolo[1,2-a]quinazolin-5(4H)-one], the inhibition at 10 µM was 81%.

Turning to `O=C(NCCc1ccccc1)c1cc2[nH]c(=O)c3ccccc3n2c1` [Compound 1-55, 2-(2-Phenylethylaminocarbonyl)pyrrolo[1,2-a]quinazolin-5(4H)-one], the inhibition at 10 µM worked out at 81%.

`O=C(NCCCc1ccccc1)c1cc2[nH]c(=O)c3ccccc3n2c1` [Compound 1-56, 2-(3-Phenylpropylaminocarbonyl)pyrrolo[1,2-a]quinazolin-5(4H)-one]: the inhibition at 10 µM came out at 83%.

As for `O=c1[nH]c2cc(CN3CCN(Cc4ccc(Cl)cc4)CC3)cn2c2ccccc12` [Compound 2-2, 2-[4-(4-Chlorobenzyl)piperazin-1-ylmethyl]pyrrolo[1,2-a]quinazolin-5(4H)-one], the inhibition at 10 µM was 78%.

With `O=c1[nH]c2cc(CN3CCN(c4nccs4)CC3)cn2c2ccccc12` [Compound 2-3, 2-[4-(Thiazol-2-yl)piperazin-1-ylmethyl]pyrrolo[1,2-a]quinazolin-5(4H)-one], the inhibition at 10 µM worked out at 99%.

On to `O=c1[nH]c2cc(CN3CCN(c4ccccc4)CC3)cn2c2ccccc12` [Compound 2-4, 2-(4-Phenylpiperazin-1-ylmethyl)pyrrolo[1,2-a]quinazolin-5(4H)-one], for which the inhibition at 10 µM is 100%.

As to `O=c1[nH]c2cc(CN3CC=C(c4ccccc4)CC3)cn2c2ccccc12` [Compound 2-6, 2-(4-Phenyl-1,2,3,6-tetrahydropyridin-1-ylmethyl)pyrrolo[1,2-a]quinazolin-5(4H)-one], the inhibition at 10 µM turned out to be 100%.

For `CN1CCN(Cc2cc3[nH]c(=O)c4ccccc4n3c2)CC1` [Compound 2-10, 2-(4-Methylpiperazin-1-ylmethyl)pyrrolo[1,2-a]quinazolin-5(4H)-one], the inhibition at 10 µM is 98%.
